Data reported in patent publication US20230302018A1 (priority 2022, published 2023).

Tested on: Male Wistar rats exposed to nitrogen mustard (NM)
Conditions: rat, in vivo

**Q.** For `CC[C@H]1[C@@H](O)[C@@H]2[C@H](CC[C@]3(C)[C@@H]([C@H](C)CCC(=O)O)CC[C@@H]23)[C@@]2(C)CC[C@@H](O)C[C@@H]12` [OCA, 6α-ethyl-chenodeoxycholic acid], which “reduction in total collagen (hydroxyproline in tissue) compared to NM alone” value is on record?
**A.** 2 fold
